Source: patent US20230348450A1, “CARBOXYLIC ACID-CONTAINING COMPOUNDS AS MODULATORS OF BIS-PHOSPHOGLYCERATE MUTASE FOR THE TREATMENT OF SICKLE CELL DISEASE” (Genzyme Corporation, priority 2020, published 2023)

Columns and labels:
hBPGM = hBPGM (Homo sapiens (Human), UniProt P07738); assay: BPGM Synthase Assay; format: biochemical; conditions: Table 6 additional results; read-out: huBPGM: synthase Enzyme IC50
Procedure, shortened: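 BPGM (5 nM) with GAPDH (0.4 U/mL) was incubated with compound for 30 min at RT in pH 7.4 Tris buffer with 3.23 mM KH2PO4 and 1 mM DTT. Reaction ran 60 min with NAD, 3PG and GAP (substrate solution 2 mM, 20 μM and 800 μM). After koningic acid stop, NADH fluorescence was read, then resorufin from diaphorase/resazurin coupling.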

[1] = molecular target: human Bisphosphoglycerate mutase (hBPGM) (Homo sapiens (Human), UniProt P07738); assay: BPGM Phosphatase Assay; format: biochemical; conditions: Table 6 additional results; read-out: huBPGM: phosphatase Enzyme EC50
Experimental: Solutions of the test compounds were then added to the plate and the DMSO content was normalized across the plate. The plate was incubated at RT for 15 min. Next, the substrate 2,3-BPG (5 μL) was added to all the wells, and the plate was sealed and incubated for 24 hr at RT. After incubation, BIOMOL green dye (40 μL) was added to all the wells, the plate was shaken to mix, and the plate was incubated at RT for 20-30 min.

hBPGM, sequence (P07738 whole entry, looked up): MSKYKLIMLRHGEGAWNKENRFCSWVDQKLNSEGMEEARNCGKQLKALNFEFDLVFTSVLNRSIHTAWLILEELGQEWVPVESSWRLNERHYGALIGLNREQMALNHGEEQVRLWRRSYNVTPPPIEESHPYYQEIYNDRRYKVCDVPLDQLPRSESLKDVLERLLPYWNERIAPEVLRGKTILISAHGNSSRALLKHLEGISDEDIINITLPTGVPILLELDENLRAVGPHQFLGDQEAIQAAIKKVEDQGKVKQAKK
human Bisphosphoglycerate mutase (hBPGM), sequence (P07738 whole entry): as the sequence (P07738 whole entry, looked up) above

Structure (SMILES)	IC50 (hBPGM) [nM]	EC50 [1] [nM]
Cc1nc(CNC(=O)C2CCN(C)C2)sc1-c1csc(-c2cc(O)c(C(=O)O)cc2F)n1 (stereo not drawn) [Example 127]	490	420
Cc1nc(COc2ccccn2)sc1-c1cccc(-c2ccc(C(=O)O)c(O)c2)n1 [Example 128]	190	79
Cc1nc(COc2ncccn2)sc1-c1cccc(-c2cc(O)c(C(=O)O)cc2F)n1 [Example 129]	40	40
COC(=O)NCc1nc(C)c(-c2csc(-c3cc(O)c(C(=O)O)cc3C)n2)s1 [Example 130]	70	40
Cc1nc(COc2cccnn2)sc1-c1csc(-c2cc(O)c(C(=O)O)cc2F)n1 [Example 131]	42	40
Cc1cnc(OCc2nc(C)c(-c3csc(-c4cc(O)c(C(=O)O)cc4F)n3)s2)nc1 [Example 132]	45	50
Cc1ccnc(OCc2nc(C)c(-c3csc(-c4cc(O)c(C(=O)O)cc4F)n3)s2)n1 [Example 133]	50	80
Cc1nc(C)c(-c2nsc(-c3cc(O)c(C(=O)O)c(F)c3F)n2)s1 [Example 134]	1000	340
COC(=O)NCc1nc(C)c(-c2csc(-c3cc(O)c(C(=O)O)c(F)c3F)n2)s1 [Example 135]	40	70
Cc1nc(CNC(=O)OCC(F)(F)F)sc1-c1csc(-c2cc(O)c(C(=O)O)cc2F)n1 [Example 136]	310	90
Cc1nc(COc2ncccn2)sc1-c1csc(-c2cc(O)c(C(=O)O)cc2F)n1 [Example 137]	28	20
Cc1nc(CNC(=O)C(C)(C)C)sc1-c1csc(-c2cc(O)c(C(=O)O)cc2F)c1 [Example 139]	84	90
Cc1nc(COc2cnccn2)sc1-c1csc(-c2cc(O)c(C(=O)O)cc2F)n1 [Example 140]	95	30
Cc1nc(C(C)NC(=O)C(C)(C)C)sc1-c1csc(-c2cc(O)c(C(=O)O)cc2F)n1 (stereo not drawn) [Example 141]	130	70
Cc1nc(COc2ncccn2)sc1-c1cccc(-c2ccc(C(=O)O)c(O)c2)c1 [Example 142]	190	130
Cc1nc(Cc2cccnc2)sc1-c1csc(-c2cc(O)c(C(=O)O)cc2F)c1 [Example 143]	200	80
CC(=O)Nc1cccc(OCc2nc(C)c(-c3csc(-c4cc(O)c(C(=O)O)cc4F)n3)s2)n1 [Example 145]	250	50
Cc1nc(COc2ccccn2)sc1-c1csc(-c2cc(O)c(C(=O)O)cc2F)c1 [Example 146]	460	50
Cc1nc(CNCC(C)(C)C)sc1-c1csc(-c2cc(O)c(C(=O)O)cc2F)n1 [Example 147]	610	50
Cc1nc(CNC(=O)c2cccnn2)sc1-c1cccc(-c2ccc(C(=O)O)c(O)c2)n1 [Example 148]	250	280
Cc1nc(CNc2ncccn2)sc1-c1csc(-c2cc(O)c(C(=O)O)cc2F)n1 [Example 149]	30	70

Structure (SMILES)	IC50 (hBPGM) [nM]	EC50 [1] [nM]
Cc1nc(C(C)NC(=O)c2cccnn2)sc1-c1csc(-c2cc(O)c(C(=O)O)cc2F)n1 (stereo not drawn) [Example 151]	65	70
Cc1nc(CNC(=O)c2ccon2)sc1-c1csc(-c2cc(O)c(C(=O)O)cc2F)n1 [Example 152]	67	40
Cc1nc(CNC(=O)c2cccnn2)sc1-c1cccc(-c2cc(O)c(C(=O)O)cc2F)n1 [Example 153]	99	70
Cc1nc(COC(=O)N2CCCC2)sc1-c1csc(-c2cc(O)c(C(=O)O)cc2F)n1 [Example 154]	170	40
COC(=O)NCc1nc(C)c(-c2ccnc(-c3cc(O)c(C(=O)O)cc3F)n2)s1 [Example 155]	310	> 25000
Cc1nc(COCC(N)=O)sc1-c1csc(-c2cc(O)c(C(=O)O)cc2F)n1 [Example 156]	350	1500
Cc1nc(COC(=O)N(C)C)sc1-c1csc(-c2cc(O)c(C(=O)O)cc2F)n1 [Example 158]	44	> 25000
Cc1nc(Cc2ccn(C)n2)sc1-c1csc(-c2cc(O)c(C(=O)O)cc2F)n1 [Example 160]	65	130
COC(=O)NCc1nc(C)c(-c2csc(-c3cc(O)c(C(=O)O)cc3F)c2)s1 [Example 161]	59	79
Cc1nc(Cc2ccccc2)sc1-c1cccc(-c2cc(O)c(C(=O)O)cc2F)n1 [Example 162]	140	60
Cc1nc(COc2ccccn2)sc1-c1csc(-c2cc(O)c(C(=O)O)cc2F)n1 [Example 163]	170	60
Cc1nc(COc2ccccn2)sc1-c1cccc(-c2cc(O)c(C(=O)O)cc2F)n1 [Example 164]	170	70
Cc1nc(Cc2ccccc2)sc1-c1csc(-c2cc(O)c(C(=O)O)cc2F)n1 [Example 165]	240	40
COC(=O)NCc1nc(C)c(-c2csc(-c3ccc(C(=O)O)c(O)c3)c2)s1 [Example 166]	250	70
COC(=O)NCc1nc(C)c(-c2cc(-c3cc(O)c(C(=O)O)cc3F)sn2)s1 [Example 168]	370	530
Cc1nc(CNCC(=O)N(C)C)sc1-c1csc(-c2cc(O)c(C(=O)O)cc2F)n1 [Example 169]	480	110
Cc1nc(CNC(=O)c2cccnn2)sc1-c1csc(-c2cc(O)c(C(=O)O)cc2F)n1 [Example 171]	28	30
Cc1nc(CNC(=O)c2cc[nH]n2)sc1-c1csc(-c2cc(O)c(C(=O)O)cc2F)n1 [Example 172]	40	40
Cc1nc(CNC(=O)c2ccn(C)n2)sc1-c1csc(-c2cc(O)c(C(=O)O)cc2F)n1 [Example 173]	49	100
Cc1nc(CNC2CCCCC2)sc1-c1csc(-c2cc(O)c(C(=O)O)cc2F)n1 [Example 174]	530	230
COCCNCc1nc(C)c(-c2csc(-c3cc(O)c(C(=O)O)cc3F)n2)s1 [Example 175]	520	320

Structure (SMILES)	IC50 (hBPGM) [nM]	EC50 [1] [nM]
COC(=O)N[C@@H](C)c1nc(C)c(-c2csc(-c3cc(O)c(C(=O)O)cc3F)n2)s1 [Example 177]	59	160
Cc1nc(NCC(=O)N(C)C)sc1-c1csc(-c2cc(O)c(C(=O)O)cc2F)n1 [Example 178]	200	3100
Cc1nc(CNC(=O)c2cccc(C#N)n2)sc1-c1csc(-c2cc(O)c(C(=O)O)cc2F)n1 [Example 180]	28	20
Cc1nc(Cn2cccnc2=O)sc1-c1csc(-c2cc(O)c(C(=O)O)cc2F)n1 [Example 181]	210	80
Cc1nc(Cc2ccccc2)sc1-c1csc(-c2cc(O)c(C(=O)O)cc2F)n1 [Example 182]	560	50
Cc1nc(C)c(-c2cc(-c3cc(O)c(C(=O)O)cc3F)sn2)s1 [Example 183]	660	280
Cc1nc(C)c(-c2csc(-c3ccc(C(=O)O)c(O)c3)n2)s1 [Example 184]	1500	80
COC(=O)NCc1nc(C)c(-c2ccnc(-c3ccc(C(=O)O)c(O)c3)n2)s1 [Example 185]	160	30
Cc1nc(CNC2CCC2)sc1-c1csc(-c2cc(O)c(C(=O)O)cc2F)n1 [Example 186]	380	30
COC(=O)NC(C)c1nc(C)c(-c2csc(-c3cc(O)c(C(=O)O)cc3F)n2)s1 (stereo not drawn) [Example 188]	55	160
Cc1nc(Cc2ccn(C)n2)sc1-c1csc(-c2ccc(C(=O)O)c(O)c2)n1 [Example 189]	120	330
Cc1nc(C(=O)c2ccn(C)n2)sc1-c1csc(-c2ccc(C(=O)O)c(O)c2)n1 [Example 190]	360	610
COC(=O)NCc1nc(C)c(-c2csc(-c3cc(O)c(C(=O)NCC(=O)O)cc3F)n2)s1 [Example 191]	780	570
Cc1nc(CNC(=O)c2ncccn2)sc1-c1csc(-c2cc(O)c(C(=O)O)cc2F)n1 [Example 192]	49	120
COC(=O)NCc1nc(C)c(-c2nsc(-c3ccc(C(=O)O)c(O)c3)n2)s1 [Example 193]	170	360
CC(=O)Nc1nc(C)c(-c2csc(-c3cc(O)c(C(=O)O)cc3F)n2)s1 [Example 194]	250	140
Cc1nc(CNC(=O)c2cccnn2)sc1-c1csc(-c2cc(O)c(C(=O)O)cc2F)n1 [Example 197]	24	220
Cc1nc(CNC(=O)N2CCCC2)sc1-c1csc(-c2cc(O)c(C(=O)O)cc2F)n1 [Example 198]	50	190
Cc1nc(CNC(=O)c2cccnc2)sc1-c1csc(-c2cc(O)c(C(=O)O)cc2F)n1 [Example 199]	67	320
Cc1nc(CNC(=O)c2ccccn2)sc1-c1csc(-c2cc(O)c(C(=O)O)cc2F)n1 [Example 200]	73	270
COC(=O)C(=O)NCc1nc(C)c(-c2csc(-c3cc(O)c(C(=O)O)cc3F)n2)s1 [Example 201]	110	640
